Measurements reported in patent US10442804B2, “Compounds for the treatment of hepatitis B virus infection” (Gilead Sciences, Inc., priority 2017, dated 2019).
Where two headings read alike, the source gives them in different places.

Legend:
[1] = tested on: HBV-infected NTCP-HepG2 cells, secreted HBsAg; assay: microbe, parasite or virus in culture; type: cell-based, hepatitis B virus (genotype D, AD38-derived); conditions: Hepatitis B virus, 120 h, secreted HBsAg in supernatant after 5 days; geometric mean of minimum four determinations; read-out: NTCP HBsAg EC50
Experimental: NTCP-HepG2 Antiviral Assay for Secreted HBsAg
HepG2 cells stably expressing sodium-taurocholate cotransporting polypeptide (NTCP-HepG2) were grown in Dulbecco's Modified Eagle Medium (DMEM) without sodium pyruvate (Thermo Fisher Scientific, Waltham, Mass.) supplemented with 10% fetal bovine serum, 2 mM L-glutamine, 1% penicillin/streptomycin, and 0.25 mg/mL G-418. NTCP-HepG2 cells were infected with 4000 genome equivalent per cell of genotype D (AD38-derived) HBV in DMEM without sodium pyruvate (Thermo Fisher Scientific, Waltham, Mass.) supplemented with 2% fetal bovine serum, 2 mM L-glutamine, 1% penicillin/streptomycin, 2.5% DMSO, and 4% PEG 8000 (Promega, Madison, Wis.). After 24-hour incubation, cells were washed three times with OptiMEM (Thermo Fisher Scientific, Waltham, Mass.) and fed with fresh DMEM without sodium pyruvate (Thermo Fisher Scientific, Waltham, Mass.) supplemented with 2% fetal bovine serum, 2 mM L-glutamine, 1% penicillin/streptomycin, and 2.5% DMSO. At 4 days after infection, infected NTCP-HepG2 cells were seeded on 384-well plates pre-coated with collagen at a density of 20000 cells per well containing serially diluted compounds of the present disclosure or DMSO (0.5%) in a final volume of 80 μl of DMEM without sodium pyruvate (Thermo Fisher Scientific, Waltham, Mass.) supplemented with 2% fetal bovine serum, 2 mM L-glutamine, 1% penicillin/streptomycin, and 1% DMSO. After an incubation time of 5 days, cell culture supernatant was collected and measured for HBsAg.
Secreted HBsAg in the supernatant were measured using a multiplex chemiluminescent MSD assay (Meso Scale Discovery, Rockville, Md.) using capture and detection antibody pairs specific for HBsAg. The EC50 values were calculated from the fit of the dose-response curves to a four-parameter equation. All EC50 values represent geometric mean values of a minimum of four determinations.

MT-4 cytotoxicity assay = type: cell-based, human; conditions: human
Experimental: Biological Example 2: MT-4 Cytotoxicity Assay
The MT-4 cell line (HTLV-1 transformed, human T lymphoblastoid cells) was obtained from the NIH AIDS Reagent program (Bethesda, Md.). MT-4 cells were maintained in RPMI-1640 media (Thermo Fisher Scientific, Waltham, Mass.) supplemented with 10% fetal bovine serum, 100 Units/mL penicillin, and 100 μg/mL streptomycin. For the MT-4 cytotoxicity assay, 0.4 μL of serially diluted solutions of certain compounds disclosed herein were added to 40 μL of cell maintenance media in 384-well black, solid bottom plate using a Biomek FX workstation (Beckman Coulter, Brea, Calif.). Two thousand cells in 35 μL were added to each well using a Biotek uFlow Workstation (Biotek, Winooski, Vt.). Each assay plate contained 10 μM puromycin (final concentration) and 0.5% DMSO in RPMI-1640 media as positive and negative controls, respectively. Assay plates were incubated for five days at 37° C. in an incubator set at 5% CO2 and 90% humidity. After five days, 22 μL of Cell Titer Glo reagent (Promega, Madison, Wis.) was added to the assay plates with a Biotek uFlow Workstation. Plates were subsequently placed on an Envision Plate Reader (Perkin Elmer, Waltham, Mass.) for five minutes before the luminescence signal was read. CC50 values were defined as the compound concentration that caused a 50% decrease in luminescence signal, and were calculated by non-linear regression using Pipeline Pilot software by applying a four parameter fit equation (Accelrys, San Diego, Calif.) and are reported in the following Table 1.

[2] = five days, Cell Titer Glo luminescence, read-out: MT-4 CC50

SMILES	EC50 [1]	CC50 at 5 days (MT-4 cytotoxicity assay; [2])	CC50 at 5 days (MT-4 cytotoxicity assay; MT-4 CC50)
COCCCOc1cc2c(cc1Cl)-c1cc(=O)c(C(=O)O)cn1[C@@H]1[C@@H]2CCC1(C)C (single isomer, unassigned) [Example 36]	170 nM	> 10 µM	
COc1cc2c(cc1Oc1ncccn1)[C@H]1CCC(C)(C)N1n1cc(C(=O)O)c(=O)cc1-2 [Example 41, (R)-11-methoxy-3,3-dimethyl-8-oxo-12-(pyrimidin-2-yloxy)-2,3,8,13b-tetrahydro-1H-pyrido[2,1-a]pyrrolo[1,2-c]phthalazine-7-carboxylic acid]	120 nM	> 10 µM	
COCCCOc1cc2c(cc1COC)-c1cc(=O)c(C(=O)O)cn1N1[C@@H]2CCC12CCC2 [Compound 110, (R)-11′-(methoxymethyl)-12′-(3-methoxypropoxy)-8′-oxo-1′,2′,8′,13b′-tetrahydrospiro[cyclobutane-1,3′-pyrido[2,1-a]pyrrolo[1,2-c]phthalazine]-7′-carboxylic acid]	3.9 nM		> 10 µM
COc1cc2c(cc1OCC1COC1)[C@H]1CCC(C)(C)N1n1cc(C(=O)O)c(=O)cc1-2 [Example 16, (R)-11-methoxy-3,3-dimethyl-12-(oxetan-3-ylmethoxy)-8-oxo-2,3,8,13b-tetrahydro-1H-pyrido[2,1-a]pyrrolo[1,2-c]phthalazine-7-carboxylic acid]	7.8 nM	> 10 µM	
COCc1cc2c(cc1OCCCOC(=O)NC1(C(F)F)CC1)[C@H]1CCC(C)(C)N1n1cc(C(=O)O)c(=O)cc1-2 [Example 88, (R)-12-(3-(((1-(Difluoromethyl)cyclopropyl)carbamoyl)oxy)propoxy)-11-(methoxymethyl)-3,3-dimethyl-8-oxo-2,3,8,13b-tetrahydro-H-pyrido[2,1-a]pyrrolo[1,2-c]phthalazine-7-carboxylic acid]	5.4 nM	> 10 µM	
COCCCOc1cc2c(cc1Cl)-c1cc(=O)c(C(=O)O)cn1N1[C@@H]2CCC12COC2 [Example 82, (R)-11′-chloro-12′-(3-methoxypropoxy)-8′-oxo-1′,2′,8′,13b′-tetrahydrospiro[oxetane-3,3′-pyrido[2,1-a]pyrrolo[1,2-c]phthalazine]-7′-carboxylic acid]	72 nM		> 10 µM
COC(C)(C)C#Cc1cc2c(cc1OC(F)(F)F)-c1cc(=O)c(C(=O)O)cn1N1[C@@H]2CCC1(C)C [Example 90, (R)-12-(3-methoxy-3-methylbut-1-yn-1-yl)-3,3-dimethyl-8-oxo-11-(trifluoromethoxy)-2,3,8,13b-tetrahydro-1H-pyrido[2,1-a]pyrrolo[1,2-c]phthalazine-7-carboxylic acid]	5 nM	> 10 µM	
COCCCOc1cc2c(cc1OC(C)(C)C)-c1cc(=O)c(C(=O)O)cn1N1[C@H]2CCC1(C)C [Example 26, (S)-11-(tert-butoxy)-12-(3-methoxypropoxy)-3,3-dimethyl-8-oxo-2,3,8,13b-tetrahydro-1H-pyrido[2,1-a]pyrrolo[1,2-c]phthalazine-7-carboxylic acid]	> 1000 nM	> 10 µM	
CC1(C)CC[C@@H]2c3cc(OCCCOC4COC4)c(Cl)cc3-c3cc(=O)c(C(=O)O)cn3N21 [Example 98, (R)-11-chloro-3,3-dimethyl-12-(3-(oxetan-3-yloxy)propoxy)-8-oxo-2,3,8,13b-tetrahydro-1H-pyrido[2,1-a]pyrrolo[1,2-c]phthalazine-7-carboxylic acid]	2.2 nM	> 10 µM	
COCCCOc1cc2c(cc1C1COC1)-c1cc(=O)c(C(=O)O)cn1N1[C@@H]2CCC1(C)C [Example 77, (R)-12-(3-methoxypropoxy)-3,3-dimethyl-11-(oxetan-3-yl)-8-oxo-2,3,8,13b-tetrahydro-1H-pyrido[2,1-a]pyrrolo[1,2-c]phthalazine-7-carboxylic acid]	12.5 nM	> 10 µM	
COCCCOc1cc2c(cc1Cl)-c1cc(=O)c(C(=O)O)cn1N1[C@@H]2COCC1(C)C (single isomer, unassigned) [Example 51]	2.9 nM	> 10 µM	
COCCCOc1cc2c(cc1Cl)-c1cc(=O)c(C(=O)O)cn1N1C2CCCC1(C)C (centres unmarked) [Example 11, 13-chloro-12-(3-methoxypropoxy)-7,7-dimethyl-2-oxo-2,7,8,9,10,10a-hexahydrodipyrido[2,1-a:1′,2′-c]phthalazine-3-carboxylic acid]	4.3 nM	> 10 µM	
CC(C)(O)C#Cc1cc2c(cc1C1CC1)-c1cc(=O)c(C(=O)O)cn1N1[C@@H]2CCC1(C)C [Example 71, (R)-11-cyclopropyl-12-(3-hydroxy-3-methylbut-1-yn-1-yl)-3,3-dimethyl-8-oxo-2,3,8,13b-tetrahydro-1H-pyrido[2,1-a]pyrrolo[1,2-c]phthalazine-7-carboxylic acid]	2.5 nM	> 10 µM	
COc1cc2c(cc1OCC1CC(=O)C1)[C@H]1CCC(C)(C)N1n1cc(C(=O)O)c(=O)cc1-2 [Example 37]	4 nM	> 10 µM	
COc1cc2c(cc1OCCCOCC(F)(F)F)[C@H]1CCC(C)(C)N1n1cc(C(=O)O)c(=O)cc1-2 [Example 60, (R)-11-methoxy-3,3-dimethyl-8-oxo-12-(3-(2,2,2-trifluoroethoxy)propoxy)-2,3,8,13b-tetrahydro-1H-pyrido[2,1-a]pyrrolo[1,2-c]phthalazine-7-carboxylic acid]	1.2 nM	> 10 µM	
COCCCOc1cc2c(cc1OC(C)C)-c1cc(=O)c(C(=O)O)cn1N1[C@@H]2CCC1(C)C [Example 22, (R)-11-isopropoxy-12-(3-methoxypropoxy)-3,3-dimethyl-8-oxo-2,3,8,13b-tetrahydro-1H-pyrido[2,1-a]pyrrolo[1,2-c]phthalazine-7-carboxylic acid]	12 nM	> 10 µM	
COCCCOc1cc2c(cc1Cl)-c1cc(=O)c(C(=O)O)cn1N1[C@@H]2CCCC1(C)C (single isomer, unassigned) [Example 12]	2.5 nM	8.8 µM	
COCCCOc1cc2c(cc1CO)-c1cc(=O)c(C(=O)O)cn1N1[C@@H]2CCC1(C)C [Compound 113, (R)-11-(hydroxymethyl)-12-(3-methoxypropoxy)-3,3-dimethyl-8-oxo-2,3,8,13b-tetrahydro-1H-pyrido[2,1-a]pyrrolo[1,2-c]phthalazine-7-carboxylic acid]	22.7 nM	> 10 µM	
COCCCOc1c(OC)cc2c(c1F)[C@H]1CCC(C)(C)N1n1cc(C(=O)O)c(=O)cc1-2 [Example 67, (R)-13-fluoro-11-methoxy-12-(3-methoxypropoxy)-3,3-dimethyl-8-oxo-2,3,8,13b-tetrahydro-1H-pyrido[2,1-a]pyrrolo[1,2-c]phthalazine-7-carboxylic acid]	5.3 nM	> 10 µM	
COCc1cc2c(cc1OCCCO)[C@H]1CCC(C)(C)N1n1cc(C(=O)O)c(=O)cc1-2 [Compound 111, (R)-12-(3-hydroxypropoxy)-11-(methoxymethyl)-3,3-dimethyl-8-oxo-2,3,8,13b-tetrahydro-1H-pyrido[2,1-a]pyrrolo[1,2-c]phthalazine-7-carboxylic acid]	32.2 nM	> 10 µM	
COCCCOc1cc2c(cc1OC)-c1cc(=O)c(C(=O)O)cn1N1[C@@H]2CCC1(C)C [Example 14, (R)-11-methoxy-12-(3-methoxypropoxy)-3,3-dimethyl-8-oxo-2,3,8,13b-tetrahydro-1H-pyrido[2,1-a]pyrrolo[1,2-c]phthalazine-7-carboxylic acid]	2.1 nM	> 10 µM	
COCCCOc1cc2c(cc1Cl)-c1cc(=O)c(C(=O)O)cn1N1CCC[C@H]21 (single isomer, unassigned) [Example 2]	110 nM	3.9 µM	
